The values below come from patent US8993544B2, “Carbamoylphosphonates as inhibitors and uses thereof” (priority 2009, dated 2015).

The IC50 is the concentration at which inhibition is half-maximal. In general, melting point refers to the temperature, or range, at which the solid turns liquid. By inhibition is commonly meant how much of the control response was suppressed.

For one series, the target named is T1, TACE (Homo sapiens, UniProt P78536).
T1 construct: purchased R&D Systems, Minneapolis
T1 sequence (P78536 215-824): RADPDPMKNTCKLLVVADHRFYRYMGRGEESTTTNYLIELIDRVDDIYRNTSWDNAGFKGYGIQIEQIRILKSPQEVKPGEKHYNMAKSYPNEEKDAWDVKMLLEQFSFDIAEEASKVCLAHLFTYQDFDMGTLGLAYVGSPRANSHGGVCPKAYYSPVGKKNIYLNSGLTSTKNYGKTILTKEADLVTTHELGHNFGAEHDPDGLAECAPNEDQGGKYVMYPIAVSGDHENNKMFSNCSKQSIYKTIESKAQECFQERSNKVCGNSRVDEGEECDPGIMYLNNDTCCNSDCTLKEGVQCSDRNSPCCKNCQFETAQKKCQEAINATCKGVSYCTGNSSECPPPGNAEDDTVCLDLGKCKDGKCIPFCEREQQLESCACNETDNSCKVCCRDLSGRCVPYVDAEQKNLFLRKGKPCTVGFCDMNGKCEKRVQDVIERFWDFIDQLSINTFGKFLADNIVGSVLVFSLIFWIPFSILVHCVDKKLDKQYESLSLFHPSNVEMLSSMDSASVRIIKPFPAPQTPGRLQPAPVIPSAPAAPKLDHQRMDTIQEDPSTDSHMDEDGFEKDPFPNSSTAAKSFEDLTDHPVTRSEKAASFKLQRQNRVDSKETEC
In words: Determination of inhibitory potency, TACE. Conditions: read-out: IC50 (μM) on TACE. Format: biochemical. On the procedure: (§1) Recombinant enzymes, human MMP-1, MMP-2, MMP-3, MMP-8, MMP-9, MMP-12, MMP-13 and TACE (R&D Systems, Minneapolis) were incubated at four different concentrations with the relevant colorimetric or fluorescent peptide substrates (R&D Systems, Minneapolis) for 3 h. The tested compounds were added at four to six different concentrations and the inhibitory potencies expressed in a colorimetric change, was measured by an ELISA or fluorimeter.

In the next series the target is T2, human MMP-3 (Homo sapiens, UniProt P08254).
T2 construct: purchased R&D Systems, Minneapolis
T2 sequence (P08254 100-477): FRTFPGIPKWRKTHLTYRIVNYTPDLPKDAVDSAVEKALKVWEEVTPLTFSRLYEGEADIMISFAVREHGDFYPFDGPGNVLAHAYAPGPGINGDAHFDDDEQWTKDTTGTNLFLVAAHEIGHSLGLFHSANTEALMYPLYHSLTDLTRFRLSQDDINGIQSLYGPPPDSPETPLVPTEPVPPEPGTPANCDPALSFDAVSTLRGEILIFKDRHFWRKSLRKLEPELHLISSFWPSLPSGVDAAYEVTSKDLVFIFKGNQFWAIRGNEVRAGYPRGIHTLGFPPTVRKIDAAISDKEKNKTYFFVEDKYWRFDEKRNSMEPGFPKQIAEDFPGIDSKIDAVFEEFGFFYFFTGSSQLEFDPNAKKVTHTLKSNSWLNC
In words: Determination of MMP inhibitory potency, MMP-3. Format: biochemical. The conditions noted are these: read-out: IC50 (μM) on MMP-3. On the procedure:
as §1

The next series has as its target T3, MMP-2 (Homo sapiens, UniProt P08253).
T3 sequence (P08253 110-660): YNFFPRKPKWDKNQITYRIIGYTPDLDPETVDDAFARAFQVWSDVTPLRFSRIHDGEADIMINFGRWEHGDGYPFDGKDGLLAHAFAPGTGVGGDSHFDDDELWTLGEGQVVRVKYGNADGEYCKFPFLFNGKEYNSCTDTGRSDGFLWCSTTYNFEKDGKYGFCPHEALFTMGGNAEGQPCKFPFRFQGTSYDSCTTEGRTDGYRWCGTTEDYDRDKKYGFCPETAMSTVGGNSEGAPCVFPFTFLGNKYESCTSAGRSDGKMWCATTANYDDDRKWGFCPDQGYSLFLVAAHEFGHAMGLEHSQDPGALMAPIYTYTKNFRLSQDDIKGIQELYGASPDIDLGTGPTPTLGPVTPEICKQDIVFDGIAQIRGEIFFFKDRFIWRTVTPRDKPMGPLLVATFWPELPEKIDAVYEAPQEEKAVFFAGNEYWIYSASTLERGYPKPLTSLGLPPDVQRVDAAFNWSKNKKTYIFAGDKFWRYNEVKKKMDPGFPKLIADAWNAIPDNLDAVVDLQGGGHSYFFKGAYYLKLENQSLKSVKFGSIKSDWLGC
In words: Determination of MMP inhibitory potency, MMP-2. Format: biochemical. Further details: purchased R&D Systems, Minneapolis. Conditions: read-out: IC50 (μM) on MMP-2. On the procedure: as §1

In a further series the target is T4, human MMP-8 (Homo sapiens, UniProt P22894).
T4 construct: purchased R&D Systems, Minneapolis
T4 sequence (P22894 101-467): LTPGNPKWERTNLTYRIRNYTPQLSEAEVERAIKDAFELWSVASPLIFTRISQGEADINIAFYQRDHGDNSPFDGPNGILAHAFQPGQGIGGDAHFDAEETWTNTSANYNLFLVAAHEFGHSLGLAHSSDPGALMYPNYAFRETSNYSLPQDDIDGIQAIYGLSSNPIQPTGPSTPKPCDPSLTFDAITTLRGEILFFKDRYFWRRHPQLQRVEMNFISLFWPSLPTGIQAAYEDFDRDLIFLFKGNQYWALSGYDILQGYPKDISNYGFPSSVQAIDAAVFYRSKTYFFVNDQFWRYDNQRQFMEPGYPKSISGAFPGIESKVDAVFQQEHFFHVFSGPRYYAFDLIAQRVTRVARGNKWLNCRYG
In words: Determination of MMP inhibitory potency, MMP-8. Format: biochemical. The conditions noted are these: read-out: IC50 (μM) on MMP-8. On the procedure: as §1

The next series addresses T5, human MMP-13 (Homo sapiens, UniProt P45452).
T5 construct: purchased R&D Systems, Minneapolis
In words: Determination of MMP inhibitory potency, MMP-13. In kind it is biochemical. The conditions noted are these: read-out: IC50 (μM) on MMP-13. On the procedure:
as §1

In a further series the target is T6, human MMP-9 (Homo sapiens, UniProt P14780).
T6 construct: purchased R&D Systems, Minneapolis
T6 sequence (P14780 94-707): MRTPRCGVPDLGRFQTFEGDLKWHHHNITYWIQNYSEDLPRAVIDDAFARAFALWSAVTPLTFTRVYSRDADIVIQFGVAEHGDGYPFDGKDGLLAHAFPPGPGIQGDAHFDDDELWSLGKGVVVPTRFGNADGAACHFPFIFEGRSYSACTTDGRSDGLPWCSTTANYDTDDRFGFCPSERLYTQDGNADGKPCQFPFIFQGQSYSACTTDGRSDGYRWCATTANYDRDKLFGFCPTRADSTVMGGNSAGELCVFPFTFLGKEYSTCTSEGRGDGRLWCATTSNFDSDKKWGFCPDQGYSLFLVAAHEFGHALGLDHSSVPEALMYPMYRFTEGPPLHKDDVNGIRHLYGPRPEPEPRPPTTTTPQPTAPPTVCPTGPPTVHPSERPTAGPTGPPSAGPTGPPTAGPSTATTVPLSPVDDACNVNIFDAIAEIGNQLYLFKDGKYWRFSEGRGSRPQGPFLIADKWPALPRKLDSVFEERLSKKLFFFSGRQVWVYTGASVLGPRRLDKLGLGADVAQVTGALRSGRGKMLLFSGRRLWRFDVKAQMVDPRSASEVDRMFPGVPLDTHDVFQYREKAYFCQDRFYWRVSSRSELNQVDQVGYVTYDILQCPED
In words: Determination of MMP inhibitory potency, MMP-9. Format: biochemical. Conditions: read-out: IC50 (μM) on MMP-9. On the procedure: as §1

A further series concerns the target T7, human MMP-12 (Homo sapiens, UniProt P39900).
T7 construct: purchased R&D Systems, Minneapolis
In words: Determination of MMP inhibitory potency, MMP-12. In kind it is biochemical. Conditions: read-out: IC50 (μM) on MMP-12. On the procedure:
as §1

The subject of the next series is MMP and/or ADAM enzyme. In words: Duration of inhibitory effect on the enzymes inhibited. Format: biochemical, human. On the procedure: Previously, it has been established that cis-2-aminocyclohexycarbamoyl phosphonic acid (cis-ACCP), listed for the purpose of comparison in Tables 2 and 3 as “control”, was an effective nontoxic, in vivo active antimetastatic compound. […] In the study leading to the subject invention, it was determined that the inhibitory effect could be, and in fact was prolonged by substituting carbamoylphosphonic functionality with aromatic ring functionality as in the compounds of the invention. […]
as §1

The subject of a further series is tumor invasion. In words: In vitro model of tumor invasion (Boyden chamber, reconstituted basement membrane). In kind it is cell-based. The conditions noted are these: read-out: % Invasion-Inhibition by 50 μM drug. On the procedure:
The compound was also evaluated in an in vivo experimental model of metastasis using B16F10 tumor cells in C57B1 mice. […] The assay was carried out in a Boyden chamber with a reconstituted basement membrane (Matrigal).

The test system of the next series is B16F10 tumor cells. In words: Murine melanoma model of experimental metastasis. In kind it is in vivo, C57B1 mice. The conditions noted are these: for % reduction in lung metastases relative to control: daily for three weeks, B16F10 cells i.v.

Where only a bound is given, the exact number is not on record here.

T7 sequence (P39900 106-470): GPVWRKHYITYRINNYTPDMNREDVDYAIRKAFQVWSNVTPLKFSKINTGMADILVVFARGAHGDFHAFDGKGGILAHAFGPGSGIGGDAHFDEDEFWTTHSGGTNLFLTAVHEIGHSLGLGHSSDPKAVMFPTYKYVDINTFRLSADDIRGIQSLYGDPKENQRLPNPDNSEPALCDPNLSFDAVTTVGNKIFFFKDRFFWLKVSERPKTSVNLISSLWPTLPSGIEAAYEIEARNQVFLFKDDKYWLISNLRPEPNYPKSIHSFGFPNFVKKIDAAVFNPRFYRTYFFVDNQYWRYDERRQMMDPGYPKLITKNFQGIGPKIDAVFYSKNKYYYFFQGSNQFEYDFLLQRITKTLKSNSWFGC
Protocol for B16F10 tumor cells: Experimental metastasis was studied in the murine melanoma model. In this model, B16F10 tumor cells (50 k) were injected into the tail vein of C57B1 6 week old female mice. After 21 days, the metastases formed on the lungs of the mice were counted after appropriate fixation. […] One group received the inhibitor intraperitoneally and the other group orally, dissolved in PBS. Mice were monitored for toxic symptoms at alternate days.

Consider `O=C(NCCCCCCCNS(=O)(=O)c1ccc(Oc2ccccc2)cc1)P(=O)(O)O` [Compound 6], for which the IC50 at TACE is 22 µM; on human MMP-3 it was > 100 µM; at MMP-2 it was > 100 µM; at human MMP-8, > 100 µM; on human MMP-13, > 100 µM; at human MMP-9, > 100 µM. For the same molecule, the concentration for half-maximal inhibition (IC50) at human MMP-12 was > 100 µM. The “Duration of inhibitory effect” value in the series on MMP and/or ADAM enzyme is >180 min.
With `O=C(NCCNCCNS(=O)(=O)c1ccc(Oc2ccccc2)cc1)P(=O)(O)O` [Compound 10, N-{2-[2-(4-Phenoxybenzenesulfonylamino)-ethylamino]-ethyl}-carbamoylphosphonic acid], the melting point was 224 to 225 °C. Further, the half-maximal inhibitory concentration (IC50) on TACE was > 100 µM. Moreover, the concentration for half-maximal inhibition (IC50) at human MMP-3 was > 100 µM. Also, at MMP-2, the concentration for half-maximal inhibition (IC50) is 20 µM. The IC50 on human MMP-8 was > 100 µM. In addition, the IC50 at human MMP-9 was > 100 µM. Moreover, in the series with MMP and/or ADAM enzyme, the “Duration of inhibitory effect” value was >180 min.
The molecule `O=C(NCCCNS(=O)(=O)c1ccc(Oc2ccccc2)cc1)P(=O)(O)O` [Compound 2, 1-[4-phenoxybenzenesulfonamido]-3-[phosphonoformamido]propane] had a melting point of 165 to 168 °C. In addition, the inhibition at 50 µM in the series on tumor invasion is 49%. For the same molecule, on TACE, the IC50 was > 100 µM. The IC50 at human MMP-3 turned out to be 35 µM. The IC50 at MMP-2 amounted to 10 µM. For the same molecule, on human MMP-8, the half-inhibitory concentration (IC50) was > 100 µM. Further, on human MMP-13, the half-inhibitory concentration (IC50) amounted to 25 µM. On human MMP-9, the IC50 was > 100 µM. The IC50 at human MMP-12 is > 100 µM. The “Duration of inhibitory effect” value in the series on MMP and/or ADAM enzyme is >180 min.
`NC(CNC(=O)P(=O)(O)O)CNS(=O)(=O)c1ccc(Oc2ccccc2)cc1` (racemic) [Compound 8, 2-amino-1-(4-phenoxybenzenesulfonamido)-3-[phosphonoformamido]propane]: the IC50 on TACE is 12 µM; on human MMP-3 it was > 100 µM; at MMP-2 it was 15 µM; on human MMP-8, 12 µM; at human MMP-13, > 100 µM; at human MMP-9, 12 µM. Moreover, the half-maximal inhibitory concentration (IC50) at human MMP-12 is 15 µM. The “Duration of inhibitory effect” value in the series on MMP and/or ADAM enzyme is >180 min. Moreover, the “duration of affinity to all the enzymes inhibited” value with MMP and/or ADAM enzyme is recorded as > 3 h.
For `N[C@H](CNC(=O)P(=O)(O)O)CNS(=O)(=O)c1ccc(Oc2ccccc2)cc1` [Compound 8R, (R)-N-[2-amino-3-(4-phenoxybenzenesulfonamido)propyl]carbamoylphosphonic acid], in the series on tumor invasion, the inhibition at 50 µM was > 100%. The 50% inhibitory concentration (IC50) at TACE is > 100 µM; at human MMP-3, > 100 µM; at MMP-2 it was 20 µM; at human MMP-8, 15 µM; on human MMP-13, > 100 µM; on human MMP-9 it was > 100 µM. Also, on human MMP-12, the IC50 was 12 µM. Also, in the series with MMP and/or ADAM enzyme, the “Duration of inhibitory effect” value is >180 min.
In the case of `O=C(NCCCCCNS(=O)(=O)c1ccc(Oc2ccccc2)cc1)P(=O)(O)O` [Compound 4], in the series with tumor invasion, the inhibition at 50 µM is 62%. The IC50 is > 100 µM on TACE; > 100 µM on human MMP-3; 5 µM on MMP-2; > 100 µM on human MMP-8; 60 µM at human MMP-13; > 100 µM on human MMP-9. The IC50 at human MMP-12 was found to be 80 µM. Also, the “inhibition of metastasis formation” value in the series with B16F10 tumor cells (50 mg/kg) is reported as > 80%. For the same molecule, the “% reduction in lung metastases relative to control” value with B16F10 tumor cells (Intraperitoneal, 25 mg/kg) is on record as 76%; with B16F10 tumor cells (Intraperitoneal, 50 mg/kg) it was 90%; with B16F10 tumor cells (Per-oral, 50 mg/kg), 80%; in the series on B16F10 tumor cells (Per-oral, 150 mg/kg), 86%.
